# Key:
# COLO 320DM cells = assay: Western blot of cytoplasmic and nuclear lysates of treated COLO 320DM cells; type: cell-based, human
# Method: After 5 days, the antiproliferative effect of compound treatment was measured at 490 nm. Mean value ± standard deviation (SD) for one representative experiment of more than three repeated assays, each with six replicates, are shown. […] (b) Representative immunoblots of cytoplasmic TNKS1/2, AXIN1, AXIN2, and cytoplasmic and nuclear transcriptionally active β-catenin (non-phospho) and β-catenin. […] For (b) and (c), control = 0.001% DMSO. (c) Real-time RT-qPCR analyses of WNT/β-catenin signaling target genes (AXIN2, DKK1, NKD1, and APCDD1). Boxplots show median, first and third quartiles, and maximum and minimum whiskers for combined data from three independent experiments with three replicates each. Dotted lines depict the control mean value = 1. For (a) and (c), analysis of variance (ANOVA) tests (Holm–Sidak method, versus control) are indicated by *** (p < 0.001) and * (p < 0.05), while ANOVA on ranks tests (Dunn’s method, versus control) are indicated by ^† (p < 0.05).
# Western blot analysis of nuclear and cytoplasmic lysates from compound-treated COLO 320DM cells was performed as previously described.[39],[50]
# PARP10 = biological target: T1, PARP10 (Homo sapiens, UniProt Q53GL7); assay: PARP10 biochemical assay; conditions: >>: no inhibition detected
# T1 construct: made in house
# Method: (§1) All reactions were performed at ambient temperature.
# (§2) The assay conditions for the other PARP enzymes were used as previously described.[39]
# TNKS1 = biological target: T2, TNKS1 (Homo sapiens, UniProt O95271); assay: TNKS1 biochemical assay (unreacted NAD+ fluorescence); conditions: TNKS1 20 nM, 10 μM NAD+, 20 h
# T2 construct: TNKS1 (residues 1030–1317); made in house
# Method: New compounds were prepared in half-log dilution series, and the reactions were carried out in quadruplicates with protein and compound controls to exclude the effect of compound autofluorescence. All reactions were performed at ambient temperature. TNKS1 (20 nM) or TNKS2 (5 nM) was incubated for 20 h in assay buffer (50 mM Bis-Tris propane (BTP), pH 7.0, 0.5 mM Tris(2-carboxyethyl)phosphine (TCEP), 0.01% Triton X-100) with compound and 10 μM or 500 nM NAD^+, respectively.
# hERG = biological target: T3, hERG (Homo sapiens, UniProt Q12809); assay: hERG inhibition
# T3 construct: Eurofins (Cerep), contract assay
# Method: (§3) A safety panel (Cerep) of 44 selected targets (n = 2) including hERG Inhibition using 10 μM 24 was performed by Eurofins. Ames and CYP3A4 inhibition assays were performed by Cyprotex, and the PXR assay (CYP induction) was performed at Admescope. The PARP assays are described below.
# PARP15 = biological target: T4, PARP15 (Homo sapiens, UniProt Q460N3); assay: PARP15 biochemical assay; conditions: >>: no inhibition detected; concentration limited by DMSO tolerance
# T4 construct: made in house
# Method: as §1, §2
# mouse plasma stability = type: in vitro ADME; conditions: read-out: mouse plasma stability t1/2
# Method: (§4) Kinetic solubility, microsomal stability, and plasma stability were determined following our internal protocol (Symeres). The Caco-2 and PPB determinations were performed by Cyprotex.
# PARP1 = biological target: T5, PARP1 (Homo sapiens, UniProt P09874); assay: PARP1 biochemical assay; conditions: > under 50% inhibition
# T5 construct: made in house
# Method: as §1, §2
# [1] = microsomal stability, human; type: in vitro ADME; conditions: microsomes
# Method: as §4
# CYP3A4 = biological target: T6, CYP3A4 (Homo sapiens, UniProt P08684); assay: CYP3A4 inhibition; type: in vitro ADME
# T6 construct: Cyprotex, contract assay
# Method: as §3
# [2] = mouse plasma protein binding; type: in vitro ADME; conditions: read-out: mouse PPB (converted)
# Method: as §4
# T2 sequence (O95271 1030-1317): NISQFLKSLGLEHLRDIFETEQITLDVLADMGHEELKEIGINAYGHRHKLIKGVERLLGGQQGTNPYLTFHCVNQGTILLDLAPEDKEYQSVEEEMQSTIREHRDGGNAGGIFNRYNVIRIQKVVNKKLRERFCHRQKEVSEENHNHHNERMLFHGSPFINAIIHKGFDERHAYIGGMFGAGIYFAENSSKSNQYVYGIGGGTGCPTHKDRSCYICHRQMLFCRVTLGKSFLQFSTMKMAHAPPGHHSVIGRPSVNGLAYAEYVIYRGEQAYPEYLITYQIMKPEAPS
# T5 sequence (P09874 whole entry): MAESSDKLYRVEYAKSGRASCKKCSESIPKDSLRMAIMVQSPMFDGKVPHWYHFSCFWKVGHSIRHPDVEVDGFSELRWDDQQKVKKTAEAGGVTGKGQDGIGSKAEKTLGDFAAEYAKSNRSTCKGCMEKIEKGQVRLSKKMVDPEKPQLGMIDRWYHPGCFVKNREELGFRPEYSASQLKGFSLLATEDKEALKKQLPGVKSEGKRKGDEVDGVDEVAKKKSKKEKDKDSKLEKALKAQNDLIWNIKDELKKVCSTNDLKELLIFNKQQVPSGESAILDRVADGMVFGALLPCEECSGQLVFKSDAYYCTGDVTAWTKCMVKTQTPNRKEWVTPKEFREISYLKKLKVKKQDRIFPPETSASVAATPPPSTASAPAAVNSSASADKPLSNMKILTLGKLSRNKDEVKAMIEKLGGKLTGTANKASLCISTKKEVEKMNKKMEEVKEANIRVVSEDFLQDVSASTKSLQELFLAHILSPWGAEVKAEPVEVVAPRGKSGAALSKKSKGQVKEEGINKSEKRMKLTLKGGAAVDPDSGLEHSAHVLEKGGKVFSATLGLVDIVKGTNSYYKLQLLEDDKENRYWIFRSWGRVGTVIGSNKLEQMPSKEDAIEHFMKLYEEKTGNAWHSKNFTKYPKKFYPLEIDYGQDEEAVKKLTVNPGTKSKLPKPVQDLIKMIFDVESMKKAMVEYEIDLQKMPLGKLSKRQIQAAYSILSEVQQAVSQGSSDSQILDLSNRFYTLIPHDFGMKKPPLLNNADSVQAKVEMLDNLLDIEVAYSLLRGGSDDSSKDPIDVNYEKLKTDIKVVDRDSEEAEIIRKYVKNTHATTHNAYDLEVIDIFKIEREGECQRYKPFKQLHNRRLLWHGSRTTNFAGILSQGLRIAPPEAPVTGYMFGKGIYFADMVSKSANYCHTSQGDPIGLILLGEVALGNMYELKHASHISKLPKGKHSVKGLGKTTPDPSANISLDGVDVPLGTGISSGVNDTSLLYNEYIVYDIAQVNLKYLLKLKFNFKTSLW
# T1 sequence (Q53GL7 whole entry): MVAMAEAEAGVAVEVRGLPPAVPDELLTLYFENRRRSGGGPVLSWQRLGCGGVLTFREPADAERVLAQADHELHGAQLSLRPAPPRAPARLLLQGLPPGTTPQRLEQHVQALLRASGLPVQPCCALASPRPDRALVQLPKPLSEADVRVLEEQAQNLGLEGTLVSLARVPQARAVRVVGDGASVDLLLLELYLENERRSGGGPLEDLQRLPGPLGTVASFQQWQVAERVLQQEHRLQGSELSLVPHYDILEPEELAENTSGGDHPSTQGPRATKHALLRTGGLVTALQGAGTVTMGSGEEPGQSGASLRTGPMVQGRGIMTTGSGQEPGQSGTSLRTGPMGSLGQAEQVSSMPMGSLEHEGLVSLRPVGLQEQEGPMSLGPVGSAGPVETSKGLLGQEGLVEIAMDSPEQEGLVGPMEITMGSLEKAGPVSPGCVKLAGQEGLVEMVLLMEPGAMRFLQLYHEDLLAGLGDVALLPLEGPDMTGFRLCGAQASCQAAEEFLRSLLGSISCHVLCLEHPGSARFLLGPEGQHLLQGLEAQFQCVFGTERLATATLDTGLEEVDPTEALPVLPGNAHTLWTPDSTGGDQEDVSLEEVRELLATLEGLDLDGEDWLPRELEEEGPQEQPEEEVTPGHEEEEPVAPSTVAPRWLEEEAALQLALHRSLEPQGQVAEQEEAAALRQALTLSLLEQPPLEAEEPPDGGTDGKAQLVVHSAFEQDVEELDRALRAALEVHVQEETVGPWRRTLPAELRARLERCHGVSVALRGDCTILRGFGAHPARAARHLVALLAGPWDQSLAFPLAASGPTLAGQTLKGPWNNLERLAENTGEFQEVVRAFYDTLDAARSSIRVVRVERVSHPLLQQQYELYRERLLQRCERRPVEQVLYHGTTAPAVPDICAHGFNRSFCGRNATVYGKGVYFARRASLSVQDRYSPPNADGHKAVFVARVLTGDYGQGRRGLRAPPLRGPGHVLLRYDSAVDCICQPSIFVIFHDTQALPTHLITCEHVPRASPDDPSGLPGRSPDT
# T4 sequence (Q460N3 whole entry): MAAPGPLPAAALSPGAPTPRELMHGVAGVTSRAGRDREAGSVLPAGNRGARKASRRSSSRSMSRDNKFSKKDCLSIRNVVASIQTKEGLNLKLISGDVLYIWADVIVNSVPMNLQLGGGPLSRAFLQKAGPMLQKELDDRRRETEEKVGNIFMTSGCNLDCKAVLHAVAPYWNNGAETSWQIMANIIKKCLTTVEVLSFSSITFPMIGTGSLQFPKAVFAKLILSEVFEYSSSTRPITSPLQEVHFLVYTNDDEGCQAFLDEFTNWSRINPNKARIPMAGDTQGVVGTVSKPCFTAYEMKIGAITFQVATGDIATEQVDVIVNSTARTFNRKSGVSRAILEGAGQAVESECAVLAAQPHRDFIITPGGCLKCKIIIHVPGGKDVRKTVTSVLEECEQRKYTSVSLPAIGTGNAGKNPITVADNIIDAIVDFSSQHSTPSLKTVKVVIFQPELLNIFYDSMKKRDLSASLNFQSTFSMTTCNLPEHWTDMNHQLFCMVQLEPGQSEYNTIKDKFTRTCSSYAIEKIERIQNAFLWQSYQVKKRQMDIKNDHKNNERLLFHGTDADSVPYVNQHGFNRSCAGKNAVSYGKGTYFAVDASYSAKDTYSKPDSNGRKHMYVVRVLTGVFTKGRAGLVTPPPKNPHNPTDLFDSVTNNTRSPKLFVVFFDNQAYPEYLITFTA
# T3 sequence (Q12809 whole entry): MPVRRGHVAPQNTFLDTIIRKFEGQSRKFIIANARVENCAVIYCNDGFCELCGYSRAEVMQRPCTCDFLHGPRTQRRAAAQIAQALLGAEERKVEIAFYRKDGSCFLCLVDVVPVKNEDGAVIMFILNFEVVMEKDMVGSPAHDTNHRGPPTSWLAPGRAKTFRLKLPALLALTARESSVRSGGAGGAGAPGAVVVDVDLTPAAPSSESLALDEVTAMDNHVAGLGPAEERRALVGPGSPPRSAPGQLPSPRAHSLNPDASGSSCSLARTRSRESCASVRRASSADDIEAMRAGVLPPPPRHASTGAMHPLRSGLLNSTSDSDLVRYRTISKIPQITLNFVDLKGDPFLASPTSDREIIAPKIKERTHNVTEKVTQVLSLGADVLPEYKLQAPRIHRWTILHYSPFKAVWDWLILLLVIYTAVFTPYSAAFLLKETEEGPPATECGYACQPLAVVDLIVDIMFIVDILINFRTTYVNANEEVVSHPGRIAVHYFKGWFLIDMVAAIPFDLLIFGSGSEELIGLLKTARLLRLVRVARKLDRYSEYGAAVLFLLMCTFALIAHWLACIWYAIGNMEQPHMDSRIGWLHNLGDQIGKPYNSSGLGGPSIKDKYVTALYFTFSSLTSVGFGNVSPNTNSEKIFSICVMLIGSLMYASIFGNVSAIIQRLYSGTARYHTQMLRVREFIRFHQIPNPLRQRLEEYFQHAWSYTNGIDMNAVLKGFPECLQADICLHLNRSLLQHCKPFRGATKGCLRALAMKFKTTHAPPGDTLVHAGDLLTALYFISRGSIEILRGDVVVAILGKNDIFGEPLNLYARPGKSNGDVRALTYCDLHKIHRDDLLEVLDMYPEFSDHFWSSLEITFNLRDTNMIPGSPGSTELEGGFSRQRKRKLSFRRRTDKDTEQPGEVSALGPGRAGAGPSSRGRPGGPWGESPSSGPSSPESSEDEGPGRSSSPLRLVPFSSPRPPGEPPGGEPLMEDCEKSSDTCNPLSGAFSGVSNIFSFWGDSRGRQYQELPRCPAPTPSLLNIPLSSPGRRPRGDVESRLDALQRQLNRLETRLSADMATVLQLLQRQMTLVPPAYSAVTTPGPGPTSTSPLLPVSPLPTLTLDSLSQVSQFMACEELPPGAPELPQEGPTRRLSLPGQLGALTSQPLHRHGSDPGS
# T6 sequence (P08684 whole entry): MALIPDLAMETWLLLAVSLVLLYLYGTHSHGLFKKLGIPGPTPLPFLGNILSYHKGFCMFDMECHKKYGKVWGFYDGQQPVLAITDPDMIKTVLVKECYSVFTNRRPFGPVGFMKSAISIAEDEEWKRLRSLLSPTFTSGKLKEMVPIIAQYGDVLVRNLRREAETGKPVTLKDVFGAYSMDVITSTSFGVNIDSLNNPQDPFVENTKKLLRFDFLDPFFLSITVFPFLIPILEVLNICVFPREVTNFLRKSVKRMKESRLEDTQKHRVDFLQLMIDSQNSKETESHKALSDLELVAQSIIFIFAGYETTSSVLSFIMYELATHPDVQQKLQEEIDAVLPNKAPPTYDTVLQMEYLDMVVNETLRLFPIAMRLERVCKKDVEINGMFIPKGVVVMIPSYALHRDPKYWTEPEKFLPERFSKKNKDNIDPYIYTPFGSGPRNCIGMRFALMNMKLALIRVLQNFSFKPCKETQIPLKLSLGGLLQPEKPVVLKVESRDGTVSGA
smiles,measurement,setting,value
"CCOc1ccc(-c2nnc([C@H]3C[C@H](NC(=O)c4cccc5nccnc45)C3)n2-c2ccccc2F)nc1 [Compound 24, N-(trans-3-(5-(5-Ethoxypyridin-2-yl)-4-(2-fluorophenyl)-4H-1,2,4-triazol-3-yl)cyclobutyl)quinoxaline-5-carboxamide]",level of transcriptionally active β-catenin (nonphosphorylated),COLO 320DM cells; cytoplasmic and nuclear fractions,reduced
same,TNKS1/2 protein levels,"COLO 320DM cells; dose-dependent, immunoblot",either increased or decreased
same,AXIN1 and AXIN2 protein levels,COLO 320DM cells; immunoblot,stabilized
same,IC50,PARP10,> 10 µM
same,IC50,TNKS1,0.013 µM
same,TNKS1 pIC50 ± SEM,TNKS1,7.90 ± 0.054
same,IC50,hERG,> 25 µM
same,IC50,PARP15,> 10 µM
same,half-life,mouse plasma stability,> 2 h
same,IC50,PARP1,> 100 µM
same,microsomal CLint at 1 h,[1],18 µL/min/mg
same,IC50,CYP3A4,> 25 µM
same,fraction unbound,[2],0.0142
